From patent publication US9849154B2, “Synergistic combination of alanine-glutamine, hyaluronic acid and oat extract and the use thereof in a composition intended for healing wounds and repairing skin lesions” (PIERRE FABRE DERMO-COSMETIQUE, priority 2013, dated 2017)
Residues, ends and D or L forms follow the SMILES beside them.

Test system: HaCaT human keratinocyte line
Experiment: Oris Cell Migration Assay: migration of keratinocytes
Format: cell-based
Details: DMEM 0% FCS; for % Migration (control 0% FCS = 100) / Average ± SD (fluorescence intensity, FI): 24 h
From the text: The objective of this test was to evaluate the effect of hyaluronic acid, oat seedling extract, L-alanyl-L-glutamine and combinations thereof on the migration of keratinocytes using the Oris Cell Migration Assay kit (Platypus Technologies).
The spontaneously immortalised HaCaT human keratinocyte line, frequently cited as reference model in the literature was used.
The protocol used for the study of cell migration is based on the use of a 96 well kit, the Oris Cell Migration Assay (Platypus technologies—TEBU), enabling the miniaturisation and the quantification of this cellular process.
The principle of this test consists in studying cell migration towards the centre of the wells of the 96 well plate. It consists in placing a stopper in the wells, in order to create a 2 mm diameter detection zone. Then removing the stoppers once cells have properly adhered to the surface around them, and thus to enable cells to migrate towards the detection zone. The plates without stoppers and with the active ingredients are incubated at 37° C. for 24 hours in DMEM (Dulbecco's Modified Eagle Medium) 0% FCS (foetal calf serum). The quantity of cells situated in the zone where the stopper was is analysed in order to evaluate the migration of the cells. A mask makes it possible to visualise and to count uniquely the cells situated in this zone. For each condition, the average is determined on 6 to 8 wells.
The cells were incubated in FCS-free medium.
• EGF: 33 ng/ml, • oat seedling extract: 10 or 30 μg/ml,
Filtering. Concentration by drying until a dry extract is obtained. • sodium hyaluronate (molecular weight 250-450 kDa): 20 or 60 μg/ml, • L-alanyl-L-glutamine: 40 or 90 μg/ml. Analysis of the Results
The Results are Expressed: • In fluorescence intensity (FI), proportional to the quantity of cells having migrated. • In percentage activity compared to the control 0% FCS.
[formula] Statistical Analyses
Statistical analyses by the Dunnett test were carried out on the crude migration values. This test then gives “p value” values characterising the significance of the results obtained for different conditions. The degree of significance was fixed at
The results at different concentrations of the effect of oat seedling extract, hyaluronic acid and L-alanyl-L-glutamine, alone or in combination on the migration of keratinocytes are indexed in tables 1 and 2 then represented in the single FIGURE. The fluorescence intensity values represented on this curve correspond to an average of 6 to 8 measurements carried out during an experiment representative of 3 independent manipulations.

| Molecule | effect on the migration of keratinocytes (in words) (L-alanyl-L-glutamine alone, 40 or 90 μg/ml) | % Migration (control 0% FCS = 100) (Table 1, 40 μg/ml) | Average ± SD (fluorescence intensity, FI) (Table 1, 40 μg/ml) | % Migration (control 0% FCS = 100) (Table 2, 90 μg/ml) | Average ± SD (fluorescence intensity, FI) (Table 2, 90 μg/ml) | % Migration (control 0% FCS = 100) (Table 1, EGF 33 ng/ml) | Average ± SD (fluorescence intensity, FI) (Table 1, EGF 33 ng/ml) | Average ± SD (fluorescence intensity, FI) (Table 2, EGF 33 ng/ml) | % Migration (control 0% FCS = 100) (Table 2, EGF 33 ng/ml, * p < 0.05 versus control) | effect on the migration of keratinocytes (in words) (positive control, EGF 33 ng/ml) |
| --- | --- | --- | --- | --- | --- | --- | --- | --- | --- | --- |
| C[C@H](N)C(=O)N[C@@H](CCC(N)=O)C(=O)O [ALANYL GLUTAMINE, L-alanyl-L-glutamine] (H-Ala-Gln-OH) | induces the migration of keratinocytes in a concentration-dependent manner | 200% | 2471 ± 788 | 194% | 2586 ± 1092 | – | – | – | – | – |
| EGF: EGF, positive control of the migration experiments, 33 ng/ml | – | – | – | – | – | 216% | 2569± | 3553 ± 1556 | 301 * % | induces the migration of keratinocytes |
